By AUC(0-inf) is commonly meant total exposure, with the tail of the curve extrapolated. The low end stands for less exposure, the high end for more exposure. Broadly, the Tmax is the time from dosing to the highest level. For orientation: IC50 means the concentration at which inhibition is half-maximal. The low end stands for greater potency in that assay, the high end for weaker potency in that assay. Broadly, the Cmax is the highest concentration seen after dosing. One may read the clearance as a measure of how efficiently the substance is removed, as volume per time. The term half-life denotes the time needed for the level to fall by half in the phase considered.

Read-outs that look alike come from different tables or passages of the source.

Series [1] concerns CDK12 and CDK13 proteins. In words: Degradation activity on CDK12/13 in MDA-MB-231 cells (Western Blot). In kind it is cell-based. Particulars: for degradation of CDK12 and CDK13 protein levels in cells: 0.1µM or 0.3µM, 15 h, WB (FIG. 1); for degradation of CDK12 and CDK13 proteins: 1 µM, 15 hours. As for the experimental part:
(§1) Experimental methods: The cell line MDA-MB-231 was purchased from the American Type Culture Collection (ATCC). Conventional Western Blot was used for detection, as follows: MDA-MB-231 cells were seeded at a density of 2 x 10^5/mL in a 12-well plate, with 1 mL per well, and cultured overnight in an incubator in an adherent manner. Then, a certain concentration of compounds was added to act for 15 h. The cells were lysed with a lysis buffer, and protein samples were collected. An appropriate amount of the sample was taken for SDS-PAGE electrophoresis. After electrophoresis, the protein was transferred to a polyvinylidene fluoride (PVDF) membrane using a wet electro-transfer system. The PVDF membrane after electro-transfer was cut into several required strips, which were then placed in a blocking solution (5% skim milk powder diluted in TBS containing 0.1% Tween 20) and blocked at room temperature for 1.5 h. A primary antibody solution was prepared by diluting a primary antibody against the corresponding target protein in TBS containing 0.1% Tween 20 according to the dilution requirements of different antibodies, such as 1:1000 (CST), 1:3000 (Proteintech, Bethyl), and 1:200 (Santacruz). The blocked membrane was placed in the corresponding primary antibody solution and incubated at 4°C for 12-14 h. Then, the cells were washed three times with TBS containing 0.1% Tween 20, each time for 5 min. After washing, the membrane was placed in a secondary antibody solution (horseradish peroxidase-labeled goat anti-rabbit IgG, diluted at 1:2000 in TBS containing 0.1% Tween 20) and reacted at room temperature for 2 h. After washing the membrane three times as above, the membrane was developed with StarSignal plus reagent (GenStar®) and Omni-ECL reagent (Yazyme®), and photographed with Amersham Imager 800 system.

Another series concerns Cyclin K. The series can be described thus: Degradation of partner protein Cyclin K in MDA-MB-231 cells (Western Blot). In kind it is cell-based. Particulars: for time dependence of degradation of Cyclin K: WB (FIG. 2); for degradation of Cyclin K protein: after 15 hours. As to the method: as §1
The test system of series [2] is CDK12 and CDK13 proteins. In words: Degradation activity on CDK12/13 in MDA-MB-231 cells (Western Blot). In kind it is cell-based. Particulars: WB (FIG. 2A).
Series [3] can be described thus: Pharmacokinetics and bioavailability test in rats (Example 57). The format is in vivo. The note with it: SD rats; for AUC(0-inf) / Tmax / MRT last / MRT inf: rat, plasma; for MRT last: read-out: MRT(0-t); for MRT inf: read-out: MRT(0-∞). As to the method: (§2) Pharmacokinetics and bioavailability tests in rats. SD rats were given a single oral (10 mg/kg), intravenous (2.5 mg/kg) and intraperitoneal (10 mg/kg) dose, followed by animal blood sample collection at appropriate time points. Heparin was added for anticoagulation, and the samples were centrifuged at 8000 rpm for 6 min. The supernatant was collected and stored at -20°C for HPLC-MS analysis. The blood samples underwent protein precipitation with acetonitrile at 12 000 rpm * 10 min, and the supernatant was used for HPCL-MS analysis. The data underwent parameter fitting with DAS2.0, to obtain compartmental model and non-compartmental model parameters, respectively. The oral bioavailability of the compounds was calculated based on the area under the plasma concentration-time curve (AUC) data. […] Table 1. Pharmacokinetic experimental results of compound zlc-4-93

In series [4] the test system is triple negative breast cancer cells MDA-MB-231. The series can be described thus: Proliferation-inhibiting activity on MDA-MB-231 cells (Cell Counting Kit-8). The format is cell-based. The note with it: Homo sapiens, 120 h; MDA-MB-231 cell line, 5 days, cck-8 (FIG. 3). As to the method:
The cell proliferation-inhibiting activity of the compounds was determined using Cell Counting Kit-8 Cell Viability Assay (Selleck.cn). The cells were seeded into a 384-well plate (CORNING® PS 3701) containing the corresponding culture medium and incubated in an incubator at 37°C with 5% CO2. After overnight incubation, a high-concentration stock solution of each compound to be tested was prepared; the compound was added to the 384-well plate according to a concentration gradient using an Echo® 650 Liquid Handler (LABCYTE®). After administration, the cell plate was placed in an incubator at 37°C with 5% CO2 and incubated for 5 days. Then, 5 µL of cck-8 reagent was added to each well of the 384-well plate using MULTIDROP® (Thermo Scientific™), and the plate was returned to the incubator for incubation for 1.5-2 h. After incubation, the plate was removed and centrifuged to remove bubbles. The absorbance of each well at 450 nm and 650 nm was obtained using EnVision® (PerkinElmer®). GraphPad Prism software (GraphPad Software Inc.) was used to process and analyze the data.
(Tetrazolium dyes change colour on reduction, which living cells bring about.)

The nature of series [5]: Pharmacokinetics and bioavailability test in rats (Example 60). In kind it is in vivo. The note with it: SD rats. As for the experimental part: as §2, with “2.” for “1.”, “compounds YJZ9069 and YJZ1102” for “compound zlc-4-93”
In series [6] the test system is phosphorylation of serine at position 2 (phoSer2) of the C-terminal domain of RNA polymeraseII (RNA Pol II). In words: Phosphorylation of Ser2 of the RNA Pol II C-terminal domain in 22RV1 cells (Western Blot). The format is cell-based. Particulars: different concentrations (FIG. 4B). As for the experimental part: Experimental methods: The cell line, 22RV1 cell line was purchased from the American Type Culture Collection (ATCC). Conventional Western Blot was used for detection as follows: 22RV1 cells were seeded in a certain number in a 12-well plate, and cultured overnight in an incubator in an adherent manner. Then, a certain concentration of compounds was added to act for 6 hours. The cells were lysed with a lysis buffer, and samples were collected. Then, an appropriate amount of the samples was taken for SDS-PAGE electrophoresis. After electrophoresis, the proteins were transferred to nitrocellulose membranes using a semi-dry electro-transfer system. The nitrocellulose membrane was placed in a blocking solution (5% skim milk powder diluted in TBS containing 0.1% Tween 20) and blocked at room temperature for 2 h. The membranes were then placed in a primary antibody solution (1: 1000 diluted in TBS containing 0.1% Tween 20), respectively, and incubated at 4°C overnight. The cells were washed three times with TBS containing 0.1% Tween 20, each time for 15 min. The membrane was placed in a secondary antibody solution (horseradish peroxidase-labeled goat anti-rabbit IgG, diluted at 1:1000 in TBS containing 0.1% Tween 20) and reacted at room temperature for 1 h. […]

The subject of series [7] is CDK12 and CDK13 proteins. The series can be described thus: Degradation activity on CDK12/13 in 22RV1 cells (Western Blot). The format is cell-based. Particulars: 22RV1 cells. As for the experimental part:
Experimental methods: The cell line, 22RV1 cell line was purchased from the American Type Culture Collection (ATCC). Conventional Western Blot was used for detection as follows: 22RV1 cells were seeded in a certain number in a 12-well plate, and cultured overnight in an incubator in an adherent manner. […] The cells were lysed with a lysis buffer, and samples were collected. Then, an appropriate amount of the samples was taken for SDS-PAGE electrophoresis. After electrophoresis, the proteins were transferred to nitrocellulose membranes using a semi-dry electro-transfer system. The nitrocellulose membrane was placed in a blocking solution (5% skim milk powder diluted in TBS containing 0.1% Tween 20) and blocked at room temperature for 2 h. The membranes were then placed in a primary antibody solution (1: 1000 diluted in TBS containing 0.1% Tween 20), respectively, and incubated at 4°C overnight. The cells were washed three times with TBS containing 0.1% Tween 20, each time for 15 min. The membrane was placed in a secondary antibody solution (horseradish peroxidase-labeled goat anti-rabbit IgG, diluted at 1:1000 in TBS containing 0.1% Tween 20) and reacted at room temperature for 1 h. After washing the membrane three times as above, the membrane was developed with ECL plus reagent and photographed using Amersham Imager 600 system.

As for `N#Cc1ccc(N[C@H]2CC[C@H](N(C(=O)NCc3ccccc3)c3ccc(N4CCC(N5CCN(c6ccc7c(c6)C(=O)N(C6CCC(=O)NC6=O)C7=O)CC5)CC4)cc3)CC2)nc1` (stereo partly drawn) [ZLC5-11], in the series with CDK12 and CDK13 proteins [1], the “degradation of CDK12 and CDK13 protein levels in cells” value (“degradation … in cells” below) is reported as “effectively degrade”; the “degradation of CDK12 and CDK13 proteins” value is “almost completely degraded”. Also, in the series on Cyclin K, the “time dependence of degradation of Cyclin K” value was “time-dependent degradation effect” and the “degradation of Cyclin K protein” value is “almost completely degraded”. The “time dependence of degradation of CDK12 and CDK13 proteins” value in the series on CDK12 and CDK13 proteins [2] is “time-dependent manner”.

With `N#Cc1ccc(N[C@H]2CC[C@H](N(C(=O)NCc3ccccc3)c3ccc(N4CCN(C5CCN(c6cc7c(cc6F)C(=O)N(C6CCC(=O)NC6=O)C7=O)CC5)CC4)cc3)CC2)nc1` (stereo partly drawn) [ZLC4-91], in series [3] (Oral 10 mg/kg, bioavailability calculated from AUC), the F was 46.80%. For the same compound, the oral pharmacokinetic properties entry in series [3] (summary in words of Table 1) is “excellent”. In addition, in series [3] (iv, i.v. 2.5 mg/kg), the AUC(0-inf) amounted to 6880 ng·h/mL, the Tmax was determined as 0.08 h, the MRT last came to 2.2 h and the MRT inf amounted to 2.32 h. Also, in series [3] (Oral 10 mg/kg), the AUC(0-inf) was found to be 12800 ng·h/mL, the Tmax was 4.67 h, the MRT last was 6.09 h and the MRT inf was 6.21 h. Besides, in series [4], half-maximal inhibition (IC50) was put at 622 nM. Further, in the series with CDK12 and CDK13 proteins [1], the “degradation … in cells” value is given as “effectively degrade”; the “degradation of CDK12 and CDK13 proteins” value is recorded as “almost completely degraded”. For the same compound, in the series on Cyclin K, the “time dependence of degradation of Cyclin K” value is listed as “time-dependent degradation effect” and the “degradation of Cyclin K protein” value was “almost completely degraded”. The “time dependence of degradation of CDK12 and CDK13 proteins” value with CDK12 and CDK13 proteins [2] was “time-dependent manner”.

Compound `N#Cc1ccc(N[C@H]2CC[C@H](N(C(=O)NCc3ccccc3)c3ccc(N4CCN(CC5CN(c6ccc7c(c6)C(=O)N(C6CCC(=O)NC6=O)C7=O)C5)CC4)cc3)CC2)nc1` (stereo partly drawn) [ZLC5-6] returned an IC50 in series [4] of 498 nM. In the series with CDK12 and CDK13 proteins [1], the “degradation … in cells” value is “effectively degrade”.

Take `O=C1CCC(N2C(=O)c3cccc(OCC(=O)N4CCN(c5ccc(N(C(=O)NCc6ccccc6)[C@H]6CC[C@H](Nc7ncc8ccccc8n7)CC6)cc5)CC4)c3C2=O)C(=O)N1` (stereo partly drawn) [YJZ9069]: the F in series [5] (PO 10 mg/kg, bioavailability calculated from AUC) is on record as 5.04%. Also, in series [5] (rat, in vivo, IV 2.5 mg/kg), the concentration peaked (Cmax) at 3510 ng/mL, the Tmax turned out to be 0.08 h, the clearance was 14.1 mL/min/kg and the half-life was 4.39 h. Besides, in series [5] (rat, in vivo, PO 10 mg/kg), the peak level (Cmax) was 121 ng/mL and the Tmax was 4 h. In addition, in series [6], the “phosphorylation of serine at position 2 (phoSer2) of RNA Pol II CTD” value was “inhibited in a dose-dependent manner”. In addition, the “degradation of CDK12 and CDK13 proteins” value with CDK12 and CDK13 proteins [7] (100 nM, 6 h (FIG. 5)) is “almost completely degrade”. In addition, in the series with CDK12 and CDK13 proteins [7] (0.5 µM, 15 hours), the “degradation of CDK12 and CDK13 proteins” value is reported as “almost completely degraded”. For the same compound, the “degradation … in cells” value in the series on CDK12 and CDK13 proteins [7] (500 nM, 6 hours, WB (FIG. 4)) was “effectively degrade”. For the same compound, in the series on CDK12 and CDK13 proteins [7] (different concentrations, 6 h (FIG. 4B, FIG. 5)), the “dose dependence of degradation of CDK12 and CDK13 proteins” value was “dose-dependent manner”.

In series [4], `N#Cc1ccc(N[C@H]2CC[C@H](N(C(=O)NCc3ccccc3)c3ccc(N4CCN(C(=O)C5CCN(c6ccc7c(c6)C(=O)N(C6CCC(=O)NC6=O)C7=O)CC5)CC4)cc3)CC2)nc1` (stereo partly drawn) [ZLC5-31] yielded an IC50 of 389 nM. Also, in the series with CDK12 and CDK13 proteins [1], the “degradation … in cells” value is recorded as “effectively degrade”.

As to `N#Cc1ccc(N[C@H]2CC[C@H](N(C(=O)NCc3ccccc3)c3ccc(N4CCN(C[C@H]5CCN(c6ccc7c(c6)C(=O)N(C6CCC(=O)NC6=O)C7=O)C5)CC4)cc3)CC2)nc1` (stereo partly drawn) [ZLC6-1], it took 289 nM to reach half-maximal inhibition in series [4] (IC50). In the series on CDK12 and CDK13 proteins [1], the “degradation … in cells” value was “effectively degrade”.
